Where “and” joins values, the source holds several entries; their conditions need not be identical. Equal values may be shown once. Toxic doses and inconclusive results are not listed. Cut-off read from the data, not from the text of the source: active = T/C of 150% or more; inactive = T/C below 125%. Peptide text beside a SMILES is read from it. * marks the point of attachment. Bz = O=C(c1ccccc1)*
Tested on: L1210 leukemia ip in BDF1 mice, survival T/C
Assay: NCI In Vivo Anticancer Drug Screen. Data for tumor model L1210 Leukemia (intraperitoneal) in B6D2F1 (BDF1) mice
Settings: endpoint: mean survival time, higher = longer survival
Method in brief: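 Survival endpoint. Drug-treated group vs vehicle group, expressed as T divided by C. Tumor passaged by transplantation.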

[1] = dose: 100.0 mg/kg/injection, schedule: Q01DX001 (ip), vehicle: other
[2] = dose: 100.0 mg/kg/injection, schedule: Q04DX003 (ip), vehicle: saline
[3] = dose: 200.0 mg/kg/injection, schedule: Q01DX001 (ip), vehicle: other
[4] = dose: 200.0 mg/kg/injection, schedule: Q04DX003 (ip), vehicle: saline
[5] = dose: 400.0 mg/kg/injection, schedule: Q01DX001 (ip), vehicle: other
[6] = dose: 400.0 mg/kg/injection, schedule: Q04DX003 (ip), vehicle: saline
[7] = dose: 100.0 mg/kg/injection, schedule: Q04DX003 (ip), vehicle: saline with Tween-80
[8] = dose: 100.0 mg/kg/injection, schedule: Q01DX001 (ip), vehicle: saline
[9] = dose: 100.0 mg/kg/injection, schedule: Q01DX009 (ip), vehicle: saline
[10] = dose: 200.0 mg/kg/injection, schedule: Q01DX001 (ip), vehicle: saline
[11] = dose: 200.0 mg/kg/injection, schedule: Q01DX009 (ip), vehicle: saline
[12] = dose: 400.0 mg/kg/injection, schedule: Q01DX001 (ip), vehicle: saline

Measured: T/C

C1=CC2CC1CC2[P+](c1ccccc1)(c1ccccc1)c1ccccc1 (centres undefined)
inactive: dose: 12.5 mg/kg/injection, schedule: Q01DX001 (ip), vehicle: saline 117 % of control | dose: 25.0 mg/kg/injection, schedule: Q01DX001 (ip), vehicle: saline 98 % of control | dose: 50.0 mg/kg/injection, schedule: Q01DX001 (ip), vehicle: saline 95 % of control

CC(=O)NCc1ccc(N)cc1
inactive: dose: 12.5 mg/kg/injection, schedule: Q01DX009 (ip), vehicle: water 114 % of control | dose: 25.0 mg/kg/injection, schedule: Q01DX009 (ip), vehicle: water 112 % of control | dose: 50.0 mg/kg/injection, schedule: Q01DX009 (ip), vehicle: water 114 % of control | dose: 100.0 mg/kg/injection, schedule: Q01DX009 (ip), vehicle: water 120 % of control | dose: 200.0 mg/kg/injection, schedule: Q01DX009 (ip), vehicle: water 116 % of control

O=C(c1ccccc1)C1CCCCC1
inactive: [1] 111 % of control | [2] 104 % of control | [3] 100 % of control | [4] 96 % of control | [5] 105 % of control | [6] 96 % of control

COc1ccc(C(=O)N(C)c2ccccc2)cc1
inactive: dose: 100.0 mg/kg/injection, schedule: Q04DX003 (ip), vehicle: Klucel (hydroxypropylcellulose) (HPC) 94 % of control | dose: 200.0 mg/kg/injection, schedule: Q04DX003 (ip), vehicle: Klucel (hydroxypropylcellulose) (HPC) 89 % of control | dose: 400.0 mg/kg/injection, schedule: Q04DX003 (ip), vehicle: Klucel (hydroxypropylcellulose) (HPC) 93 % of control

COc1ccccc1-n1c(=O)c(N=Nc2ccccc2)c(O)n(-c2ccccc2Cl)c1=S
inactive: dose: 50.0 mg/kg/injection, schedule: Q04DX003 (ip), vehicle: saline with Tween-80 94 % of control | [7] 94 % of control

CCO/N=C(/N)N=C(N)N
inactive: [8] 92 % of control | [9] 106 % of control | [2] 95 % of control | [10] 97 % of control | [11] 107 % of control | [4] 91 % of control | [12] 92 % of control | dose: 400.0 mg/kg/injection, schedule: Q01DX009 (ip), vehicle: saline 97 % of control | [6] 91 % of control

Cc1ccc(S(=O)(=O)N2/C(=C/c3ccccc3)C(=O)c3ccccc3-c3ccccc32)cc1
inactive: [8] 96 % of control | [10] 91 % of control | [12] 90 % of control

NC(CSS(=O)(=O)O)=NC1CCCCC1
inactive: dose: 6.25 mg/kg/injection, schedule: Q04DX002 (ip), vehicle: saline with Tween-80 120 % of control | dose: 12.5 mg/kg/injection, schedule: Q04DX002 (ip), vehicle: saline with Tween-80 113 % of control | dose: 25.0 mg/kg/injection, schedule: Q04DX002 (ip), vehicle: saline with Tween-80 98 % of control

CCOC(=O)NNC(=O)Nc1ccc(Cl)c([N+](=O)[O-])c1
inactive: [9] 104 % of control | [11] 93 % of control

CN(C)S(=O)(=O)c1ccccc1C1(O)CCCCC1
inactive: dose: 100.0 mg/kg/injection, schedule: Q01DX009 (ip), vehicle: other 87 % of control | [7] 91 % of control | dose: 200.0 mg/kg/injection, schedule: Q01DX009 (ip), vehicle: other 94 % of control | dose: 200.0 mg/kg/injection, schedule: Q04DX003 (ip), vehicle: saline with Tween-80 102 % of control | dose: 400.0 mg/kg/injection, schedule: Q01DX009 (ip), vehicle: other 97 % of control | dose: 400.0 mg/kg/injection, schedule: Q04DX003 (ip), vehicle: saline with Tween-80 109 % of control

Cn1c(N)cc(=O)n(C)c1=O
inactive: dose: 100.0 mg/kg/injection, schedule: Q01DX001 (ip), vehicle: Klucel (hydroxypropylcellulose) (HPC) 112 % of control | dose: 200.0 mg/kg/injection, schedule: Q01DX001 (ip), vehicle: Klucel (hydroxypropylcellulose) (HPC) 107 % of control | dose: 400.0 mg/kg/injection, schedule: Q01DX001 (ip), vehicle: Klucel (hydroxypropylcellulose) (HPC) 109 % of control

COc1ccc(OC)c(NC(=O)c2cccc(N(CCCl)CCCl)c2)c1
inactive: [1] 98 % of control | [3] 95 % of control | [5] 104 % of control

CCCCCCCCN(NC(=O)c1ccccc1)S(=O)(=O)c1ccccc1
inactive: dose: 25.0 mg/kg/injection, schedule: Q01DX001 (ip), vehicle: carboxymethylcellulose (CMC) 100 % of control | dose: 25.0 mg/kg/injection, schedule: Q04DX003 (ip), vehicle: carboxymethylcellulose (CMC) 96 % of control | dose: 50.0 mg/kg/injection, schedule: Q01DX001 (ip), vehicle: carboxymethylcellulose (CMC) 100 % of control | dose: 50.0 mg/kg/injection, schedule: Q01DX009 (ip), vehicle: carboxymethylcellulose (CMC) 97 % of control and 89 % of control | dose: 50.0 mg/kg/injection, schedule: Q04DX002 (ip), vehicle: carboxymethylcellulose (CMC) 100 % of control and 107 % of control | dose: 50.0 mg/kg/injection, schedule: Q04DX003 (ip), vehicle: carboxymethylcellulose (CMC) 96 % of control | dose: 100.0 mg/kg/injection, schedule: Q01DX001 (ip), vehicle: carboxymethylcellulose (CMC) 98 % of control | dose: 100.0 mg/kg/injection, schedule: Q01DX009 (ip), vehicle: carboxymethylcellulose (CMC) 100 % of control and 105 % of control | dose: 100.0 mg/kg/injection, schedule: Q04DX002 (ip), vehicle: carboxymethylcellulose (CMC) 100 % of control and 101 % of control | dose: 200.0 mg/kg/injection, schedule: Q04DX002 (ip), vehicle: carboxymethylcellulose (CMC) 102 % of control and 103 % of control

COC(=O)CNC(=O)CNC(=O)c1ccccc1 (Bz-Gly-Gly-OMe)
inactive: dose: 100.0 mg/kg/injection, schedule: Q01DX009 (ip), vehicle: saline with Tween-80 89 % of control | dose: 200.0 mg/kg/injection, schedule: Q01DX009 (ip), vehicle: saline with Tween-80 87 % of control | dose: 400.0 mg/kg/injection, schedule: Q01DX009 (ip), vehicle: saline with Tween-80 87 % of control

COc1cccc(CC(C(=O)c2ccc(O)cc2)c2ccccc2)c1 (centres undefined)
inactive: [8] 97 % of control | [10] 97 % of control | [12] 101 % of control

— PubChem BioAssay AID248 (DTP/NCI, 2004)
